Columns and labels:
[1] = system: Human immunodeficiency virus 1; assay: Antiviral activity against HIV-1; format: functional, organism-based
[2] = biological target: Human immunodeficiency virus type 1 protease (Human immunodeficiency virus 1, UniProt Q72874); assay: Compound was tested for inhibitory activity against recombinant HIV-1 protease using 125 I-SPA (scintillation proximity assay)

Row | Compound | IC50 [1] [nM] | IC50 [2] [nM]
1 | O=C(N[C@H]1CCCC[C@@H]1NC(=O)[C@H](Cc1ccccc1)CC(O)C[C@@H](Cc1ccccc1)C(=O)N[C@H]1CCCC[C@@H]1NC(=O)c1ccccn1)c1ccccn1 | > 20000 | 400
2 | O=C(N[C@H]1CCCC[C@@H]1NC(=O)[C@H](Cc1ccccc1)CC(O)C[C@@H](Cc1ccccc1)C(=O)N[C@H]1CCCC[C@@H]1NC(=O)c1ccncc1)c1ccncc1 | > 20000 | 350
3 | CC(C)(C)OC(=O)N[C@H]1CCCC[C@@H]1NC(=O)[C@H](Cc1ccccc1)CC(O)C[C@@H](Cc1ccccc1)C(=O)N[C@H]1CCCC[C@@H]1NC(=O)OC(C)(C)C |  | > 10000
4 | O=C(N[C@H]1CCCC[C@@H]1NC(=O)[C@H](Cc1ccccc1)CC(O)C[C@@H](Cc1ccccc1)C(=O)N[C@H]1CCCC[C@@H]1NC(=O)c1cccnc1)c1cccnc1 |  | 600
5 | O=C(N[C@H]1CCCC[C@@H]1NC(=O)[C@H](Cc1ccccc1)CC(O)C[C@@H](Cc1ccccc1)C(=O)N[C@H]1CCCC[C@@H]1NC(=O)c1ccc2ccccc2n1)c1ccc2ccccc2n1 | 2000 | 40
6 | O=C(N[C@H]1CCCC[C@@H]1NC(=O)[C@H](Cc1ccccc1)CC(O)C[C@@H](Cc1ccccc1)C(=O)N[C@H]1CCCC[C@@H]1NC(=O)c1cc2ccccc2cn1)c1cc2ccccc2cn1 |  | 45
7 | CC(=O)N[C@H]1CCCC[C@@H]1NC(=O)[C@H](Cc1ccccc1)CC(O)C[C@@H](Cc1ccccc1)C(=O)N[C@H]1CCCC[C@@H]1NC(C)=O |  | 3000

Source: ChEMBL document CHEMBL1127249, “Design, structure activity and x-ray crystallographic studies of pseudosymmetrical nonpeptidyl HIV-1 protease inhibitors” (Bioorg Med Chem Lett, 1994)
